Experimental data: publication PMC10254530, “Design and Synthesis of Brefeldin A-Isothiocyanate Derivatives with Selectivity and Their Potential for Cervical Cancer Therapy” (Molecules, 2023)
Where a name gives a salt, the structure may show the parent alone.

How the values were obtained:
U87 cells = test system: U87 cells; parameters: method as in PMID 35557894; details: glioblastoma multiforme U87 cells in vitro; read-out: IC50, cytotoxic activity against U87 cells; cited from earlier work
HepG2 cells = assay: CCK-8 antiproliferative assay, HepG2; assay type: cell-based; details: Homo sapiens, HepG2; CCK-8, 48 h, mean ± SD of three experiments; read-out: IC50 HepG2
Procedure: (§1) All cells were cultured in Dulbecco’s Modified Eagle’s Medium (DMEM) (Burlington, MA, USA) or Roswell Park Memorial Institute (RPMI)-1640 medium containing 10% fetal bovine serum and 1% penicillin/streptomycin in an incubator at 37 °C and 5% CO2. […] Cell suspension with a concentration of 8 × 10^4 cells/mL was prepared after cell counting. 100 μL cell suspension was added to each well of the 96-well plate and then placed in an incubator overnight. Most of the derivatives were configured into 80 mM, 20 mM or 4 mM stock solution in DMSO, and the stock solution concentration of BFA and paclitaxel was 0.4 mM. […] The medium in each well was discarded, and 100 μL of gradient diluted derivative solution was added (the control group was added with serum-free medium).

MDA-MB-231 cells = assay: CCK-8 antiproliferative assay, MDA-MB-231; assay type: cell-based; details: Homo sapiens, MDA-MB-231; CCK-8, 48 h, mean ± SD of three experiments; read-out: IC50 MDA-MB-231
Procedure: as §1

A375 cells = assay: CCK-8 antiproliferative assay, A375; assay type: cell-based; details: Homo sapiens, A-375; CCK-8, 48 h, mean ± SD of three experiments; read-out: IC50 A375
Procedure: as §1

A549 cells = assay: CCK-8 antiproliferative assay, A549; assay type: cell-based; details: Homo sapiens, A549; CCK-8, 48 h, mean ± SD of three experiments; read-out: IC50 A549
Procedure: as §1

HeLa cells [1] = assay: CCK-8 antiproliferative assay, HeLa; assay type: cell-based, human; details: for IC50: Homo sapiens, HeLa, CCK-8, 48 h, mean ± SD of three experiments, read-out: IC50 HeLa; for SIHeLa, selectivity index between L-02 and HeLa: SI = IC50(L-02)/IC50(HeLa)
Procedure: as §1

L-02 cells = assay: CCK-8 cytotoxicity assay, normal liver L-02; assay type: cell-based; details: Homo sapiens, L02; CCK-8, 48 h, normal liver cells, mean ± SD of three experiments; read-out: IC50 L-02
Procedure: as §1

HeLa cells [2] = assay: Cell cycle analysis, PI staining flow cytometry; assay type: cell-based, human; details: 48 h; for cells in G1 phase: control 33.42%
Procedure: Cell cycle was detected by PI single staining method. Cell suspension with a concentration of 2 × 10^5 cells/mL was prepared after cell counting. 1 mL cell suspension was added to each well of the 6-well plate and then placed in an incubator overnight. The medium in each well was discarded, and 1 mL of gradient diluted derivative solution 6 (0, 0.46, 0.92 and 1.84 µM) was added (the control group was added with serum-free medium). According to the manual of Cell Cycle Detection Kit KGA511, after 48 h, HeLa cells were collected and fixed with 70% ethanol for 2 h. After centrifugation, 100 μL RNase A (working concentration 20 μg/mL) was added and placed in a 37 °C water bath for 30 min. Then 400 μL PI staining (working concentration 50 μg/mL) was added and mixed, centrifugal tube was placed in the dark at 4 °C for 30 min. Red fluorescence at the excitation wavelength of 488 nm was recorded by flow cytometry.

HeLa cells [3] = assay: Hoechst 33258 staining assay; assay type: cell-based, human; details: HeLa, 0.46, 0.92 and 1.84 µM, 48 h
Procedure: HeLa cells in 6-well plates were collected after administration. According to the manual of Apoptotic Cell Hoechst 33258 Detection Kit KGA211, HeLa cells were fixed with paraformaldehyde for 30 min. After centrifugation, HeLa cells were soaked in PBS for 5 min and washed 3 times. An appropriate amount of Hoechst 33258 staining solution (working concentration 0.5 μg/mL) was added so that fully covers the HeLa cells and then the cells were left at room temperature for 10 min. After dyeing, HeLa cells were soaked in PBS for 5 min and washed 3 times. Observation under an Olympus (Tokyo, Japan) IX73 fluorescence microscope after sealing with an anti-fluorescence quenching sealing solution (glycerol:PBS = 1:9).

HeLa cells [4] = assay: Annexin V-FITC/PI apoptosis analysis, flow cytometry; assay type: cell-based, human; details: 48 h, control 3.21%
Procedure: According to the manual of Annexin V-FITC/PI Apoptosis Detection Kit KGA105, HeLa cells in 6-well plates were collected by 0.25% trypsin without EDTA (in PBS) digestion after 48 h administration by the above method. After washing with PBS 3 times, 500 μL Binding Buffer was added to suspend HeLa cells. Then Annexin V-FITC and PI were added successively in dark for 15 min, and HeLa cell apoptosis was detected by BD FACSVerse flow cytometer.

HeLa cells [5] = assay: Mitochondrial membrane potential analysis, JC-1 staining; assay type: cell-based, human; details: 48 h; for JC-1 quadrant Q1-LL / JC-1 quadrant Q1-UL: control 0.00%; for JC-1 green fluorescent cells (decreased mitochondrial membrane potential), quadrant Q1-LR: control 4.07%; for JC-1 quadrant Q1-UR: control 95.93%
Procedure: Mitochondrial membrane potential was detected by the JC-1 staining method. According to the manual of JC-1 Apoptosis Detection Kit KGA601, HeLa cells in 6-well plates were collected by 0.25% trypsin without EDTA (in PBS) digestion after 48 h administration. The Incubation Buffer was prepared according to the instructions, mixing and preheating to 37 °C. 500 μL 1 × Incubation Buffer was mixed with 1 μL JC-1 (working concentration 10 μg/mL) to suspend HeLa cells and then the cells were incubated for 20 min. Cells were collected by centrifugation at room temperature, washed twice with 1 × Incubation Buffer and then detected by BD FACSVerse flow cytometer.

C[C@@H]1CCC2[C@@H](C)[C@@H](OCCCN=C=S)O[C@@H]3O[C@@]4(C)CCC1[C@@]23OO4 (stereo partly drawn) [compound B]
IC50 (U87 cells): 7.41 µM

C[C@H]1CCC/C=C/[C@@H]2C[C@H](O)C[C@H]2[C@H](OC(=O)c2ccc(N=C=S)cc2)/C=C/C(=O)O1 [Compound 6, (1R,2E,6S,10E,11aS,13S,14aR)-13-Hydroxy-6-methyl-4-oxo-1,6,7,8,9,11a,12,13,14,14a-decahydro-4H-cyclopenta[f][1]oxacyclotridecin-1-yl 4-isothiocyanatobenzoate]
IC50 (HepG2 cells): 20.8 ± 1.22 µM
IC50 (MDA-MB-231 cells): 6.83 ± 0.61 µM
IC50 (A375 cells): 3.08 ± 0.43 µM
IC50 (A549 cells): 7.18 ± 0.51 µM
IC50 (HeLa cells [1]): 1.84 ± 0.08 µM
IC50 (L-02 cells): > 80 µM
cells in G1 phase (HeLa cells [2]; 0.46 µM): 43.39%
cells in G1 phase (HeLa cells [2]; 0.92 µM): 49.55%
cells in G2 phase (HeLa cells [2]; 1.84 µM, control 22.94%): 12.50%
cells in G1 phase (HeLa cells [2]; 1.84 µM): 60.80%
cells in S phase (HeLa cells [2]; 1.84 µM, control 43.64%): 26.70%
nuclear morphology, Hoechst33258 staining (HeLa cells [3]): nuclear fragmentation
percentage of cells in the early and late stages of apoptosis (HeLa cells [4]; 0.46 µM): 16.04%
percentage of cells in the early and late stages of apoptosis (HeLa cells [4]; 0.92 µM): 26.41%
percentage of cells in the early and late stages of apoptosis (HeLa cells [4]; 1.84 µM): 39.03%
JC-1 quadrant Q1-LL (HeLa cells [5]; 0.46 µM): 0.00%
JC-1 quadrant Q1-UL (HeLa cells [5]; 0.46 µM): 0.00%
JC-1 green fluorescent cells (decreased mitochondrial membrane potential), quadrant Q1-LR (HeLa cells [5]; 0.46 µM): 13.88%
JC-1 quadrant Q1-UR (HeLa cells [5]; 0.46 µM): 86.12%
JC-1 quadrant Q1-LL (HeLa cells [5]; 0.92 µM): 0.00%
JC-1 quadrant Q1-UL (HeLa cells [5]; 0.92 µM): 0.00%
JC-1 green fluorescent cells (decreased mitochondrial membrane potential), quadrant Q1-LR (HeLa cells [5]; 0.92 µM): 24.80%
JC-1 quadrant Q1-UR (HeLa cells [5]; 0.92 µM): 75.20%
JC-1 quadrant Q1-LL (HeLa cells [5]; 1.84 µM): 0.00%
JC-1 quadrant Q1-UL (HeLa cells [5]; 1.84 µM): 0.00%
JC-1 green fluorescent cells (decreased mitochondrial membrane potential), quadrant Q1-LR (HeLa cells [5]; 1.84 µM): 39.69%
JC-1 quadrant Q1-UR (HeLa cells [5]; 1.84 µM): 60.31%

C[C@H]1CCC/C=C/[C@@H]2C[C@H](OC(=O)/C=C\C(=O)OCCCCOC(=O)c3ccc(N=C=S)cc3)C[C@H]2[C@H](OC(=O)/C=C\C(=O)OCCCCOC(=O)c2ccc(N=C=S)cc2)/C=C/C(=O)O1 [Compound 8h, Bis(4-((4-isothiocyanatobenzoyl)oxy)butyl) O,O’-((1R,2E,6S,10E,11aS,13S,14aR)-6-methyl-4-oxo-1,6,7,8,9,11a,12,13,14,14a-decahydro-4H-cyclopenta[f][1]oxacyclotridecine-1,13-diyl) dimaleate]
IC50 (HepG2 cells): > 40 µM
IC50 (MDA-MB-231 cells): > 40 µM
IC50 (A375 cells): > 40 µM
IC50 (A549 cells): > 40 µM
IC50 (HeLa cells [1]): 8.48 ± 0.72 µM
IC50 (L-02 cells): > 80 µM

C[C@H]1CCC/C=C/[C@@H]2C[C@H](O)C[C@H]2[C@H](OC(=O)/C=C\C(=O)OCC#CCOC(=O)c2ccc(N=C=S)cc2)/C=C/C(=O)O1 [Compound 9i, (1R,2E,6S,10E,11aS,13S,14aR)-13-Hydroxy-6-methyl-4-oxo-1,6,7,8,9,11a,12,13,14,14a-decahydro-4H-cyclopenta[f][1]oxacyclotridecin-1-yl (4-((4-isothiocyanatobenzoyl)oxy)but-2-yn-1-yl) maleate]
IC50 (HepG2 cells): 11.9 ± 0.32 µM
IC50 (MDA-MB-231 cells): 10 ± 0.26 µM
IC50 (A375 cells): 9.1 ± 0.46 µM
IC50 (A549 cells): 10.3 ± 0.35 µM
IC50 (HeLa cells [1]): 6.59 ± 0.75 µM
SIHeLa, selectivity index between L-02 and HeLa (HeLa cells [1]): 4.27
IC50 (L-02 cells): 28.14 ± 0.14 µM

C[C@H]1CCC/C=C/[C@@H]2C[C@H](OC(=O)/C=C\C(=O)OCCOCCOC(=O)c3ccc(N=C=S)cc3)C[C@H]2[C@H](OC(=O)/C=C\C(=O)OCCOCCOC(=O)c2ccc(N=C=S)cc2)/C=C/C(=O)O1 [Compound 8j, Bis(2-(2-((4-isothiocyanatobenzoyl)oxy)ethoxy)ethyl) O,O’-((1R,2E,6S,10E,11aS,13S,14aR)-6-methyl-4-oxo-1,6,7,8,9,11a,12,13,14,14a-decahydro-4H-cyclopenta[f][1]oxacyclotridecine-1,13-diyl) dimaleate]
IC50 (HepG2 cells): > 40 µM
IC50 (MDA-MB-231 cells): > 40 µM
IC50 (A375 cells): > 40 µM
IC50 (A549 cells): 23.79 ± 0.02 µM
IC50 (HeLa cells [1]): 30.6 ± 2.12 µM
SIHeLa, selectivity index between L-02 and HeLa (HeLa cells [1]): 0.70
IC50 (L-02 cells): 21.27 ± 0.16 µM

C[C@H]1CCC/C=C/[C@@H]2C[C@H](O)C[C@H]2[C@H](OC(=O)/C=C\C(=O)OCCOCCOC(=O)c2ccc(N=C=S)cc2)/C=C/C(=O)O1 [Compound 9j, (1R,2E,6S,10E,11aS,13S,14aR)-13-Hydroxy-6-methyl-4-oxo-1,6,7,8,9,11a,12,13,14,14a-decahydro-4H-cyclopenta[f][1]oxacyclotridecin-1-yl (2-(2-((4-isothiocyanatobenzoyl)oxy)ethoxy)ethyl) maleate]
IC50 (HepG2 cells): 3.69 ± 0.14 µM
IC50 (MDA-MB-231 cells): 2.27 ± 0.03 µM
IC50 (A375 cells): 1.5 ± 0.05 µM
IC50 (A549 cells): 4.61 ± 0.12 µM
IC50 (HeLa cells [1]): 1.71 ± 0.02 µM
SIHeLa, selectivity index between L-02 and HeLa (HeLa cells [1]): 6.29
IC50 (L-02 cells): 10.8 ± 0.57 µM

C[C@H]1CCC/C=C/[C@@H]2C[C@H](OC(=O)c3ccc(N=C=S)cc3)C[C@H]2[C@H](OC(=O)c2ccc(N=C=S)cc2)/C=C/C(=O)O1 [Compound 5, (1R,2E,6S,10E,11aS,13S,14aR)-6-methyl-4-oxo-1,6,7,8,9,11a,12,13,14,14a-decahydro-4H-cyclopenta[f][1]oxacyclotridecine-1,13-diyl bis(4-isothiocyanatobenzoate)]
IC50 (HepG2 cells): > 40 µM
IC50 (MDA-MB-231 cells): > 40 µM
IC50 (A375 cells): > 40 µM
IC50 (A549 cells): 20.9 ± 1.42 µM
IC50 (HeLa cells [1]): > 40 µM
IC50 (L-02 cells): > 80 µM

C[C@H]1CCC/C=C/[C@@H]2C[C@H](O)C[C@H]2[C@H](OC(=O)/C=C\C(=O)OCCOC(=O)c2ccc(N=C=S)cc2)/C=C/C(=O)O1 [Compound 9g, (1R,2E,6S,10E,11aS,13S,14aR)-13-Hydroxy-6-methyl-4-oxo-1,6,7,8,9,11a,12,13,14,14a-decahydro-4H-cyclopenta[f][1]oxacyclotridecin-1-yl (2-((4-isothiocyanatobenzoyl)oxy)ethyl) maleate]
IC50 (HepG2 cells): 12.8 ± 0.15 µM
IC50 (MDA-MB-231 cells): 7.51 ± 0.07 µM
IC50 (A375 cells): 11.9 ± 0.54 µM
IC50 (A549 cells): 10.4 ± 0.59 µM
IC50 (HeLa cells [1]): 3.63 ± 0.23 µM
SIHeLa, selectivity index between L-02 and HeLa (HeLa cells [1]): 5.75
IC50 (L-02 cells): 20.9 ± 0.49 µM

C[C@H]1CCC/C=C/[C@@H]2C[C@H](O)C[C@H]2[C@H](OC(=O)CCC(=O)OCCOC(=O)c2ccc(N=C=S)cc2)/C=C/C(=O)O1 [Compound 9a, (1R,2E,6S,10E,11aS,13S,14aR)-13-Hydroxy-6-methyl-4-oxo-1,6,7,8,9,11a,12,13,14,14a-decahydro-4H-cyclopenta[f][1]oxacyclotridecin-1-yl (2-((4-isothiocyanatobenzoyl)oxy)ethyl) succinate]
IC50 (HepG2 cells): 5.93 ± 0.03 µM
IC50 (MDA-MB-231 cells): 8.04 ± 0.01 µM
IC50 (A375 cells): 2.07 ± 0.09 µM
IC50 (A549 cells): 8.29 ± 0.1 µM
IC50 (HeLa cells [1]): 2.69 ± 0.3 µM
SIHeLa, selectivity index between L-02 and HeLa (HeLa cells [1]): 5.75
IC50 (L-02 cells): 15.5 ± 1.22 µM
